Source: patent publication US20260028365A1 (BIOGEN MA INC., priority 2022, published 2026)

Tests used:
JH2 domain of human Tyk2 = JH2 domain of human Tyk2 (Homo sapiens (Human), UniProt P29597); experiment: JH2 Biochemical Assay (TR-FRET probe displacement); assay type: binding; details: JH2 domain of human Tyk2, TR-FRET probe displacement
Tyk2 = Tyk2 (Homo sapiens (Human), UniProt P29597); experiment: pSTAT4 Cell Assay (MSD, NK92 cells); assay type: cell-based; details: MSD
Sequence of Tyk2 (P29597 whole entry): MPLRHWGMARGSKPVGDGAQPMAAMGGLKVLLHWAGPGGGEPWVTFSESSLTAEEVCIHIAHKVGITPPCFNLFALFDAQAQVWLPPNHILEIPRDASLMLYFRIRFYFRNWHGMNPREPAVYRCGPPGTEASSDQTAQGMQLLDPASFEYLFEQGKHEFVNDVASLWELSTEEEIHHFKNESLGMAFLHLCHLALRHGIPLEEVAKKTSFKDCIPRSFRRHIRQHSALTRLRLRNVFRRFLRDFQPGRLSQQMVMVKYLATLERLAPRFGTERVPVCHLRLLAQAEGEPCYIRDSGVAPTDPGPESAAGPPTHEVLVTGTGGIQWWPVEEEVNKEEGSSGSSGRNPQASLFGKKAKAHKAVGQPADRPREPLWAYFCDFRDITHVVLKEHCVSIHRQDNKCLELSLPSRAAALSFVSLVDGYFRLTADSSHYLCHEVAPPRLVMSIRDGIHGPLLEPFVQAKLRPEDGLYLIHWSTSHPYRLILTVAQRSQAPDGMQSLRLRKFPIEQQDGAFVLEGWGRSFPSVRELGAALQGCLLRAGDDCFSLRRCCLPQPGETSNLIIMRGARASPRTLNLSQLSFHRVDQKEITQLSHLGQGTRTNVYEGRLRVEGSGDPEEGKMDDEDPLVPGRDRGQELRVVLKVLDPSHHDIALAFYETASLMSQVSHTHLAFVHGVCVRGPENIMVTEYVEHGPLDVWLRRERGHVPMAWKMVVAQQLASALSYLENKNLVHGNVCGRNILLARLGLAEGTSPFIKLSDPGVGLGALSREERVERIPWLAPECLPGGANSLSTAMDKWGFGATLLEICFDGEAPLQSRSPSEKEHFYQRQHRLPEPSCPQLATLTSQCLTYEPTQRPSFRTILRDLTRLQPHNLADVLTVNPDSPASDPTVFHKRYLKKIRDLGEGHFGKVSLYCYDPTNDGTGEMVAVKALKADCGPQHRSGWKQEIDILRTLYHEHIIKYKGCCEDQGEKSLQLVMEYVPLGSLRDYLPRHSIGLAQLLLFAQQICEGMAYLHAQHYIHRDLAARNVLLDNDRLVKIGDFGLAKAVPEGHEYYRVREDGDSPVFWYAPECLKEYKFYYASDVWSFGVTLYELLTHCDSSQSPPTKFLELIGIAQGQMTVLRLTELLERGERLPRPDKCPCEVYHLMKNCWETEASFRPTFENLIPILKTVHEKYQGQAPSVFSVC

Sequence of JH2 domain of human Tyk2 (P29597 575-876): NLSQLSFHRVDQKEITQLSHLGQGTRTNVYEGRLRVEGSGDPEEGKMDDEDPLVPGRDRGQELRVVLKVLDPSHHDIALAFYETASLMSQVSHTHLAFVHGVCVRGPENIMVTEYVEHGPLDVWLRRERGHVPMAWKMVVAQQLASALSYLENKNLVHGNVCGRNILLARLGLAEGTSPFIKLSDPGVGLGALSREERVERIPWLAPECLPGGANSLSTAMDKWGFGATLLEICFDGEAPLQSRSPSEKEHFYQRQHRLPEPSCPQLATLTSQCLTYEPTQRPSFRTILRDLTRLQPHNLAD

Structure (SMILES) | IC50 (JH2 domain of human Tyk2) [µM] | IC50 (Tyk2) [µM]
COCCOc1nc(C)cc(Nc2cc(NC(C)=O)ncc2-c2ccn(C)n2)n1 [Example 559, N-(4-((2-(2-methoxyethoxy)-6-methylpyrimidin-4-yl)amino)-5-(1-methyl-1H-pyrazol-3-yl)pyridin-2-yl)acetamide] | ≤ 0.01 | 0.01 to 0.1
CC(=O)Nc1cc(Nc2cc(C)nc([C@]34CO[C@](CF)(C3)C4)n2)c(-c2ccn(C)n2)cn1 [Example 560, N-(4-((2-((1s,4s)-1-(fluoromethyl)-2-oxabicyclo[2.1.1]hexan-4-yl)-6-methylpyrimidin-4-yl)amino)-5-(1-methyl-1H-pyrazol-3-yl)pyridin-2-yl)acetamide] | 0.01 to 0.1 | ≥ 1
CC(=O)Nc1cc(Nc2cc(C)nc(C34CC(CO3)C4)n2)c(-c2ccn(C)n2)cn1 [Example 562, N-(4-((2-(2-oxabicyclo[2.1.1]hexan-1-yl)-6-methylpyrimidin-4-yl)amino)-5-(1-methyl-1H-pyrazol-3-yl)pyridin-2-yl)acetamide] | ≤ 0.01 | 0.01 to 0.1
CC(=O)Nc1cc(Nc2cc(C)nc(C34COC(C3)C4)n2)c(-c2ccc3c(n2)OCC(C)(C)O3)cn1 [Example 563, N-(4-((2-(2-oxabicyclo[2.1.1]hexan-4-yl)-6-methylpyrimidin-4-yl)amino)-5-(2,2-dimethyl-2,3-dihydrO[1,4]dioxino[2,3-b]pyridin-6-yl)pyridin-2-yl)acetamide] | ≤ 0.01 | 0.01 to 0.1
CC(=O)Nc1cc(Nc2cc(C)nc(C34COC(C3)C4)n2)c(-c2cc3n(n2)CC(F)(F)C3)cn1 [Example 564, N-(4-((2-(2-oxabicyclo[2.1.1]hexan-4-yl)-6-methylpyrimidin-4-yl)amino)-5-(5,5-difluorO5,6-dihydrO4H-pyrrolo[1,2-b]pyrazol-2-yl)pyridin-2-yl)acetamide] | ≤ 0.01 | ≤ 0.01
COCc1ccc(-c2cnc(NC(C)=O)cc2Nc2ccnc(C3CCOC3)n2)nc1 (centres unmarked) [Example 567, N-(5-(methoxymethyl)-4′-((2-(tetrahydrofuran-3-yl)pyrimidin-4-yl)amino)-[2,3′-bipyridin]-6′-yl)acetamide] | ≤ 0.01 | 0.01 to 0.1
COCc1ccc(-c2cnc(NC(C)=O)cc2Nc2cc(C)nc(C3CCOC3)n2)nc1 (centres unmarked) [Example 568, N-(5-(methoxymethyl)-4′-((6-methyl-2-(tetrahydrofuran-3-yl)pyrimidin-4-yl)amino)-[2,3′-bipyridin]-6′-yl)acetamide] | ≤ 0.01 | ≤ 0.01
CCc1cc(Nc2cc(NC(C)=O)ncc2-c2ccc(COC)cn2)nc(C2CCOC2)n1 (centres unmarked) [Example 569, N-(4′-((6-ethyl-2-(tetrahydrofuran-3-yl)pyrimidin-4-yl)amino)-5-(methoxymethyl)-[2,3′-bipyridin]-6′-yl)acetamide] | ≤ 0.01 | ≤ 0.01
COCc1ccc(-c2cnc(NC(C)=O)cc2Nc2cc(COC)nc(C3CCOC3)n2)nc1 (centres unmarked) [Example 570, N-(5-(methoxymethyl)-4′-((6-(methoxymethyl)-2-(tetrahydrofuran-3-yl)pyrimidin-4-yl)amino)-[2,3′-bipyridin]-6′-yl)acetamide] | ≤ 0.01 | 0.01 to 0.1
CC(=O)Nc1cc(Nc2cc(C)nc(C34COC(C3)C4)n2)c(-c2ccc(C(F)F)cn2)cn1 [Example 572, N-(4′-((2-(2-oxabicyclo[2.1.1]hexan-4-yl)-6-methylpyrimidin-4-yl)amino)-5-(difluoromethyl)-[2,3′-bipyridin]-6′-yl)acetamide] | ≤ 0.01 | ≤ 0.01
CC(=O)Nc1cc(Nc2ccnc(C(C)(F)F)n2)c(-c2nc3c(s2)COCC3)cn1 [Example 573, N-(4-((2-(1,1-difluoroethyl)pyrimidin-4-yl)amino)-5-(6,7-dihydrO4H-pyrano[4,3-d]thiazol-2-yl)pyridin-2-yl)acetamide] | ≤ 0.01 | ≤ 0.01
COC(C)c1ccc(-c2cnc(NC(C)=O)cc2Nc2cc(C)nc(C34COC(C3)C4)n2)nc1 (centres unmarked) [Example 575, N-(4′-((2-(2-oxabicyclo[2.1.1]hexan-4-yl)-6-methylpyrimidin-4-yl)amino)-5-(1-methoxyethyl)-[2,3′-bipyridin]-6′-yl)acetamide] | ≤ 0.01 | ≤ 0.01
CC(=O)Nc1cc(Nc2cc(C)nc(C34COC(C3)C4)n2)c(-c2cc(C(F)F)ccn2)cn1 [Example 576, N-(4′-((2-(2-oxabicyclo[2.1.1]hexan-4-yl)-6-methylpyrimidin-4-yl)amino)-4-(difluoromethyl)-[2,3′-bipyridin]-6′-yl)acetamide] | ≤ 0.01 | 0.1 to 1
CC(=O)Nc1cc(Nc2cc(C)nc(C34COC(C3)C4)n2)c(-c2ccc(C(C)F)cn2)cn1 (centres unmarked) [Example 577, N-(4′-((2-(2-oxabicyclo[2.1.1]hexan-4-yl)-6-methylpyrimidin-4-yl)amino)-5-(1-fluoroethyl)-[2,3′-bipyridin]-6′-yl)acetamide] | ≤ 0.01 | ≤ 0.01
CC(=O)Nc1cc(Nc2cc(C)nc(C(C)(F)F)n2)c(-c2coc(C)n2)cn1 [Example 578, N-(4-((2-(1,1-difluoroethyl)-6-methylpyrimidin-4-yl)amino)-5-(2-methyloxazol-4-yl)pyridin-2-yl)acetamide] | ≤ 0.01 | ≤ 0.01
CC(=O)Nc1cc(Nc2ccnc(C(C)(F)F)n2)c(-c2cnn(C3CCC3)c2)cn1 [Example 579, N-(5-(1-cyclobutyl-1H-pyrazol-4-yl)-4-((2-(1,1-difluoroethyl)pyrimidin-4-yl)amino)pyridin-2-yl)acetamide] | 0.1 to 1 | ≥ 1

Structure (SMILES) | IC50 (JH2 domain of human Tyk2) [µM] | IC50 (Tyk2) [µM]
CC(=O)Nc1cc(Nc2ccnc(C(C)(F)F)n2)c(-c2coc(C)n2)cn1 [Example 581, N-(4-((2-(1,1-difluoroethyl)pyrimidin-4-yl)amino)-5-(2-methyloxazol-4-yl)pyridin-2-yl)acetamide] | ≤ 0.01 | 0.01 to 0.1
CCc1cc(Nc2cc(NC(C)=O)ncc2-c2ccc(F)cn2)nc(C(C)(F)F)n1 [Example 582, N-(4′-((2-(1,1-difluoroethyl)-6-ethylpyrimidin-4-yl)amino)-5-fluorO[2,3′-bipyridin]-6′-yl)acetamide] | ≤ 0.01 | ≤ 0.01
CCc1cc(Nc2cc(NC(C)=O)ncc2-c2ccc(C#N)cn2)nc(C(C)(F)F)n1 [Example 583, N-(5-cyanO4′-((2-(1,1-difluoroethyl)-6-ethylpyrimidin-4-yl)amino)-[2,3′-bipyridin]-6′-yl)acetamide] | ≤ 0.01 | ≤ 0.01
COCCOc1cc(Nc2cc(NC(C)=O)ncc2-c2ccncn2)nc(C(C)(F)F)n1 [Example 585, N-(4-((2-(1,1-difluoroethyl)-6-(2-methoxyethoxy)pyrimidin-4-yl)amino)-5-(pyrimidin-4-yl)pyridin-2-yl)acetamide] | ≤ 0.01 | ≤ 0.01
COc1cncc(Nc2cc(NC(C)=O)ncc2-c2ccc(F)cn2)n1 [Example 586, N-(5-fluorO4′-((6-methoxypyrazin-2-yl)amino)-[2,3′-bipyridin]-6′-yl)acetamide] | ≤ 0.01 | 0.01 to 0.1
COCCn1ncc(-c2cnc(NC(C)=O)cc2Nc2cc(OC3CC3)nc(C(C)(F)F)n2)n1 [Example 587, N-(4-((6-cyclopropoxy-2-(1,1-difluoroethyl)pyrimidin-4-yl)amino)-5-(2-(2-methoxyethyl)-2H-1,2,3-triazol-4-yl)pyridin-2-yl)acetamide] | ≤ 0.01 | ≤ 0.01
COCc1ccc(-c2cnc(NC(C)=O)cc2Nc2cncc(OC(F)F)n2)nc1 [Example 588, N-(4′-((6-(difluoromethoxy)pyrazin-2-yl)amino)-5-(methoxymethyl)-[2,3′-bipyridin]-6′-yl)acetamide] | ≤ 0.01 | 0.01 to 0.1
CC(=O)Nc1cc(Nc2cc(C)nc(C(C)(F)F)n2)c(-c2ccccn2)cn1 [Example 591, N-(4′-((2-(1,1-difluoroethyl)-6-methylpyrimidin-4-yl)amino)-[2,3′-bipyridin]-6′-yl)acetamide] | ≤ 0.01 | ≤ 0.01
CC(=O)Nc1cc(Nc2cc(C)nc(C(C)(F)F)n2)c(-c2nc(C)co2)cn1 [Example 592, N-(4-((2-(1,1-difluoroethyl)-6-methylpyrimidin-4-yl)amino)-5-(4-methyloxazol-2-yl)pyridin-2-yl)acetamide] | ≤ 0.01 | 0.01 to 0.1
CC(=O)Nc1cc(Nc2cc(C)nc(C(C)(F)F)n2)c(-c2ccc(C)cn2)cn1 [Example 593, N-(4′-((2-(1,1-difluoroethyl)-6-methylpyrimidin-4-yl)amino)-5-methyl-[2,3′-bipyridin]-6′-yl)acetamide] | ≤ 0.01 | ≤ 0.01
CC(=O)Nc1cc(Nc2cc(C)nc(C(C)(F)F)n2)c(-c2ncc(C)cn2)cn1 [Example 595, N-(4-((2-(1,1-difluoroethyl)-6-methylpyrimidin-4-yl)amino)-5-(5-methylpyrimidin-2-yl)pyridin-2-yl)acetamide] | ≤ 0.01 | 0.01 to 0.1
CC(=O)Nc1cc(Nc2cc(C)nc(C(C)(F)F)n2)c(-n2ccc(C)n2)cn1 [Example 597, N-(4-((2-(1,1-difluoroethyl)-6-methylpyrimidin-4-yl)amino)-5-(3-methyl-1H-pyrazol-1-yl)pyridin-2-yl)acetamide] | ≤ 0.01 | 0.01 to 0.1
COc1ccc(-c2cnc(NC(C)=O)cc2Nc2cc(C)nc(C(C)(F)F)n2)nc1 [Example 599, N-(4′-((2-(1,1-difluoroethyl)-6-methylpyrimidin-4-yl)amino)-5-methoxy-[2,3′-bipyridin]-6′-yl)acetamide] | ≤ 0.01 | ≤ 0.01
CC(=O)Nc1cc(Nc2cc(C)nc(C(C)(F)F)n2)c(-c2cnc(C)o2)cn1 [Example 600, N-(4-((2-(1,1-difluoroethyl)-6-methylpyrimidin-4-yl)amino)-5-(2-methyloxazol-5-yl)pyridin-2-yl)acetamide] | 0.01 to 0.1 | 0.1 to 1
CC(=O)Nc1cc(Nc2cc(C)nc(C(C)(F)F)n2)c(-c2cn(C)c(C#N)n2)cn1 [Example 601, N-(5-(2-cyanO1-methyl-1H-imidazol-4-yl)-4-((2-(1,1-difluoroethyl)-6-methylpyrimidin-4-yl)amino)pyridin-2-yl)acetamide] | ≤ 0.01 | ≤ 0.01
